Patent publication US8911935B2, “Mitochondria and human immunodefiency virus type 1” (New York University, priority 2011, dated 2014)
Entries after “also recorded” stand apart in the source; their conditions may differ.

What was measured:
[1] = test system: HIV-1 infected H9 cells; experiment: Cell death of HIV-1 infected H9 cells on pre-treatment with mitochondrial inhibitors; settings: pre-treatment for 3 hours; CCCP 10 μM, antimycin A 2.4 μM, oligomycin 2.4 μM
Method: To verify that functional mitochondria are essential for cell-to-cell transmission of the virus, we pre-treated HIV-1 infected H9 cells with mitochondrial inhibitors including carbonyl cyanide m-chlorophenylhydrazone (CCCP, 10 μM), antimycin A (2.4 μM), and oligomycin (2.4 μM) for 3 hours [14].

[2] = test system: HIV-1; experiment: Live-cell fluorescence imaging of cell-to-cell transmission of HIV-1, pre-treated H9 cells co-cultured with GFP-MT2 target cells; type: cell-based, Human immunodeficiency virus type 1 (HIV-1); settings: FIG. 4C-3; for cell-to-cell spread of HIV-1, VS and syncytia formation: H9 cells pre-treated 3 hours (CCCP 10 μM, antimycin A 2.4 μM, oligomycin 2.4 μM), washed, co-cultured with GFP-MT2
Method: (§1) HIV-1 infected H9 cells were fluorescently labeled with MitoTracker Red CMXRos to stain mitochondria red, and with Hoechst 33342 to stain DNA blue according to the manufacturer's protocols (Molecular Probes). Uninfected MT2 target cells were labeled green by the expression of green fluorescent protein (GFP-MT2). Cells were co-cultured and imaged on a glass bottom 96-well plate (MatTek, Ashland, Mass.) in RPMI 1640 medium containing 10% heat-inactivated fetal calf serum, 2 mM L-glutamine, 100 U/ml penicillin and 100 μg/ml streptomycin (complete medium). Labeled HIV-1 infected H9 cells were washed 3 times with complete medium to remove any residual free virus and free dye. Washed cells were suspended in complete medium at a density of 5×10^5 cells/ml. 100 μl of this cell suspension, containing 50,000 cells, were plated into each well. 100,000 GFP-MT2 target cells in 100 μl were then added to each well, to give a ratio of 1:2 of infected to uninfected target cells.
Live-cell real-time images and time lapse movies were collected at 37° C., 5% CO2 using a microplate incubator, with precision temperature, humidity and CO2 controls, mounted on the microscope stage of a Leica inverted microscope equipped with an automatic power stage and an AF6000 camera. Phase contrast, blue (Hoechst 33342), green (GFP), and red (MitoTracker) channels were used for imaging. Images were collected at 0.5 min or 5 min intervals for 18-24 hours. Image analysis was performed using LCSAF software.

[3] = test system: human pancreatic cancer PANC-1 cells; settings: glucose-deprived conditions; cited from earlier work
[4] = test system: HIV-1; experiment: Syncytia formation assay in co-cultures of HIV-1 infected H9 cells with MT2 target cells; type: cell-based, Human immunodeficiency virus type 1 (HIV-1); settings: Human immunodeficiency virus 1, H9, 3 h, HIV-infected H9 cells treated with 10 μM CCCP for 3 hours, then co-cultured with MT2 target cells
Method: as §1, with “100 μl of this cell suspension, containing 50,000 cells, were plated into each well. 100,000 GFP-MT2 target cells in 100 μl were then added to each well, to give a ratio of 1:2 of infected to uninfected target cells.” left out
Acute HIV infection of the target cells as a result of cell-to-cell transmission of the virus was measured by syncytia formation assay. Focal syncytium formation was scored under an inverted microscope.
(§2) For quantitation of syncytial formation and HIV p24 production, data are means±standard deviations of four independent experiments. […]
(§3) To confirm that mitochondria from HIV infected cells serve as viral reservoirs and carry the virus into the uninfected target cells, the present inventors quantitated viral infection and replication in the co-cultures by syncytia formation and viral antigen p24 production. […]

[5] = test system: HIV-1 core protein p24; experiment: HIV-1 p24 assay (ELISA) in co-culture supernatants; type: cell-based, Human immunodeficiency virus type 1 (HIV-1); settings: HIV-infected H9 cells treated with CCCP, co-cultured with MT2 target cells; supernatant
Method: as §1, with “cells. […]” for “cells.”
as §2, §3

| Compound | cell death [1] | cell-to-cell spread of HIV-1, VS and syncytia formation [2] | cytotoxicity [3] | syncytia formation in fluorescent images ([2]; CCCP-treated HIV-1 infected H9 cells co-cultured with GFP-MT2 target cells) | inhibition at 10 µM [4] [%] | reduction of p24 expression [5] |
| --- | --- | --- | --- | --- | --- | --- |
| CC[C@H]1/C=C/C=C/C[C@@H](C)[C@H](O)[C@@](C)(O)C(=O)[C@@H](C)[C@H](O)[C@@H](C)C(=O)[C@@H](C)[C@H](O)[C@@H](C)/C=C/C(=O)O[C@@H]2[C@H](C)[C@H](CC1)O[C@]1(CC[C@H](C)[C@H](C[C@@H](C)O)O1)[C@H]2C [oligomycin] | no cell death | reduced cell-to-cell spread of HIV-1 and decreased VS and syncytia formation |  |  |  |  |
| efrapeptin F |  |  | preferential cytotoxicity |  |  |  |
| antimycin A | no cell death | reduced cell-to-cell spread of HIV-1 and decreased VS and syncytia formation |  |  |  |  |
| N#CC(C#N)=NNc1cccc(Cl)c1 [CCCP, carbonyl cyanide m-chlorophenylhydrazone] | no cell death | reduced cell-to-cell spread of HIV-1 and decreased VS and syncytia formation |  | inhibits syncytia formation; also recorded: blocked syncytia formation | ~95 | about 95% |
